Patent publication US12532889B2, “Herbicidal compositions comprising glufosinate” (BASF SE, priority 2023, dated 2026)
Where “and” joins values, the source holds several entries; their conditions need not be identical. Equal values may be shown once.

Columns and labels:
Assay in all cases: Post-emergence application in field trials (Example A)
Type in all cases: in vivo
[1] = tested on: SETPA (Setaria palmifolia); conditions: Table 5.3; SETPA growth stage 76-77; A-1 25, B-6 252 g ai/ha; 28 DAT; water 300 l/ha
Description: (§1) In the examples below, using the method of S. R. Colby (1967) “Calculating synergistic and antagonistic responses of herbicide combinations”, Weeds 15, p. 22ff., the value E, which is expected if the activity of the individual active compounds is only additive, was calculated:
(§2) [formula] • where • X=percent activity using active herbicide A at an application rate a; • Y=percent activity using active herbicide B (e.g. glufosinate) at an application rate b; • E=expected activity (in %) by A+B at application rates a+b.
(§3) If the value found experimentally is higher than the value E calculated according to Colby, a synergistic effect is present.
(§4) On field test sites, natural weed infestation or seeded weeds were treated post-emergence of the weeds.
(§5) In the field trials, the weeds were treated as indicated below.
(§6) In the following experiments, the herbicidal activity for the individual herbicidal compositions (solo and mixture applications) was assessed at the indicated days after treatment (DAT). The assessments for the damage on undesired weeds caused by the composition was carried out using a scale from 0 to 100%, compared to the untreated control plants. Here, 0 means no damage and 100 means complete destruction of the plants.

[2] = tested on: LOLMU (Lolium multiflorum); conditions: for % Herbicidal activity: B-6 252 g ai/ha, growth stage 22-25, height 20-25 cm; for % herbicidal activity: Table 6.1, LOLMU growth stage 22-25, height 20-25 cm, 200 l/ha water
Description: as §1, §2, §3, §4, §5, §6

[3] = tested on: ECHCG (Echinocloa crus-galli)
Description: as §1, §2, §3, §4, §5, §6

[4] = tested on: CYPKH (Cyperus kyllingia var. humilis); conditions: Table 5.4; CYPKH growth stage 76-77, height 13-14 cm; A-1 25, B-6 252 g ai/ha; 28 DAT; water 400 l/ha
Description: as §1, §2, §3, §4, §5, §6

ZEAMX (Zea mays) = tested on: ZEAMX (Zea mays)
Description: as §1, §2, §3, §4, §5, §6

[5] = tested on: DIGSA (Digitaria sanguinalis); conditions: for % Herbicidal activity: growth stage 22
Description: as §1, §2, §3, §4, §5, §6

[6] = tested on: AMASP (Amaranthus spinosus); conditions: Table 5.5; AMASP growth stage 72; A-1 25, B-6 252 g ai/ha; 28 DAT; water 400 l/ha
Description: as §1, §2, §3, §4, §5, §6

[7] = tested on: HORVW (Hordeum vulgare (winter barley))
Description: as §1, §2, §3, §4, §5, §6

[8] = tested on: SETVE (Setaria verticillata); conditions: 42 DAT; B-6 252 g ai/ha; growth stage 21-23; height 8-16 cm
Description: as §1, §2, §3, §4, §5, §6

CYNDA (Cynodon dactylon) = conditions: A-1 25, B-6 252 g ai/ha, 28 DAT, water 400 l/ha
Description: as §1, §2, §3, §4, §5, §6

[9] = 21 DAT, B-6 150 g ai/ha, growth stage 23-30, height 15-20 cm
[10] = 21 DAT, B-6 252 g ai/ha, growth stage 23-30, height 15-20 cm
[11] = 42 DAT, B-6 252 g ai/ha, growth stage 15-16, height 27-33 cm
[12] = 21 DAT, B-6 252 g ai/ha, growth stage 23-29, height 20-25 cm

CP(=O)(O)CC[C@H](N)C(=O)O.N [B-6, glufosinate-P-ammonium]
% herbicidal activity [1]: 32% | % Herbicidal activity ([2]; 7 DAT): 60% | % Herbicidal activity ([2]; 28 DAT): 40% | % herbicidal activity ([2]; A-1 12.5, B-6 252 g ai/ha, 7 DAT): 60% | % herbicidal activity ([2]; A-1 18, B-6 252 g ai/ha, 7 DAT): 60% | % Herbicidal activity ([3]; 7 DAT, B-6 252 g ai/ha, growth stage 23-30, height 15-20 cm): 60% | % Herbicidal activity [3, 9]: 40% | % herbicidal activity [3, 9]: 40% | % Herbicidal activity [3, 10]: 70% | % herbicidal activity [3, 10]: 70% | % Herbicidal activity ([3]; 28 DAT, B-6 252 g ai/ha, growth stage 23-30, height 15-20 cm): 70% and 60% | % herbicidal activity ([3]; Table 6.1, ECHCG growth stage 23-30, height 15-20 cm, A-1 12.5, B-6 150 g ai/ha, 7 DAT, 200 l/ha water): 50% | % herbicidal activity ([3]; Table 6.1, ECHCG growth stage 23-30, height 15-20 cm, A-1 12.5, B-6 252 g ai/ha, 7 DAT, 200 l/ha water): 60% | % herbicidal activity ([3]; Table 6.1, ECHCG growth stage 23-30, height 15-20 cm, A-1 18, B-6 150 g ai/ha, 7 DAT, 200 l/ha water): 50% | % herbicidal activity ([3]; Table 6.1, ECHCG growth stage 23-30, height 15-20 cm, A-1 18, B-6 252 g ai/ha, 7 DAT, 200 l/ha water): 60% | % herbicidal activity [4]: 48% | % Herbicidal activity (ZEAMX (Zea mays); 21 DAT, B-6 252 g ai/ha, growth stage 15-16, height 27-33 cm): 65% | % herbicidal activity (ZEAMX (Zea mays); 21 DAT, B-6 252 g ai/ha, growth stage 15-16, height 50-60 cm): 30% | % Herbicidal activity (ZEAMX (Zea mays); 28 DAT, B-6 252 g ai/ha, growth stage 15-16, height 50-60 cm): 75% | % Herbicidal activity (ZEAMX (Zea mays); [11]): 45% and 50% | % herbicidal activity (ZEAMX (Zea mays); [11]): 45% | % herbicidal activity (ZEAMX (Zea mays); Table 6.1, ZEAMX growth stage 15-16, height 50-60 cm, A-1 18, B-6 252 g ai/ha, 7 DAT, 200 l/ha water): 65% | % Herbicidal activity ([5]; 7 DAT, B-6 252 g ai/ha, height 10-15 cm): 75% | % herbicidal activity ([5]; 21 DAT, B-6 252 g ai/ha, growth stage 21-22, height 10-15 cm): 20% | % Herbicidal activity ([5]; 21 DAT, B-6 252 g ai/ha, height 10-15 cm): 80% | % Herbicidal activity ([5]; 42 DAT, B-6 252 g ai/ha, height 10-15 cm): 50% | % herbicidal activity ([5]; Table 6.1, DIGSA growth stage 21-22, height 10-15 cm, A-1 18, B-6 252 g ai/ha, 7 DAT, 200 l/ha water): 30% | % herbicidal activity [6]: 84% | % Herbicidal activity ([7]; 7 DAT, B-6 150 g ai/ha, growth stage 23-29, height 20-25 cm): 0% | % Herbicidal activity ([7]; 7 DAT, B-6 252 g ai/ha, growth stage 23-29, height 20-25 cm): 50% and 30% | % Herbicidal activity ([7]; 21 DAT, B-6 150 g ai/ha, growth stage 23-29, height 20-25 cm): 0% | % Herbicidal activity [7, 12]: 70% | % herbicidal activity [7, 12]: 30% and 40% | % herbicidal activity ([7]; Table 6.1, HORVW growth stage 23-29, height 20-25 cm, A-1 12.5, B-6 150 g ai/ha, 7 DAT, 200 l/ha water): 0% | % herbicidal activity ([7]; Table 6.1, HORVW growth stage 23-29, height 20-25 cm, A-1 12.5, B-6 252 g ai/ha, 7 DAT, 200 l/ha water): 50% | % herbicidal activity ([7]; Table 6.1, HORVW growth stage 23-29, height 20-25 cm, A-1 18, B-6 150 g ai/ha, 7 DAT, 200 l/ha water): 0% | % herbicidal activity ([7]; Table 6.1, HORVW growth stage 23-29, height 20-25 cm, A-1 18, B-6 252 g ai/ha, 7 DAT, 200 l/ha water): 40% | % Herbicidal activity [8]: 60% | % herbicidal activity [8]: 35% | % herbicidal activity (CYNDA (Cynodon dactylon); Table 5.4, CYNDA growth stage 76-77, height 15-16 cm): 88% | % herbicidal activity (CYNDA (Cynodon dactylon); Table 5.5, CYNDA growth stage 72): 86%
